Ends that are not written are not given here.
How the values were obtained:
[1] = tested on: anti HTLV-III antibodies; experiment: Immunoreactivity of peptides at 1 ug per well in ELISA with pooled AIDS serum, relative to 21mer peptide; assay type: binding, human; settings: for Reactivity %: 1 ug per well, pooled AIDS serum sample, 21mer peptide set as 100%
Text: Various peptide analogs based on the above described amino acid sequence have been prepared. These analogs and their reactivities with the anti HTLV-III antibodies present in sera of AIDS and ARC patients are described in Example 8 and Table III. The reactivity in an ELISA test for the same amount of each peptide by weight per volume was compared with the reactivity of the 21mer peptide, which was assigned a reactivity of 100.
The 35mer peptide, 19mer peptide, 11mer peptide and eight analogues of the 21mer peptide, and overlapping 19mer peptide were prepared in their amide form according to the classical Merrifield method described herein above.
The immunoreactivity of the various peptides at 1 ug per well level was tested using a pooled AIDS serum sample. The reactivity of each peptide was compared with the reactivity of the 21mer peptide which was set as 100%.

[2] = tested on: antibodies to HTLV-III; assay type: binding, human; settings: screened out from over 500 HTLV III positive AIDS serum specimens
Description: Following the procedure described in Example 1, mixtures of the 21mer peptide with the 19mer peptide with various weight ratios, from 10:1.25 to 4:1, were used as the immunoadsorbent. The wells were coated with 1 ug of the mixture. The serum samples used were two samples from patients which had been diagnosed as positive for AIDS and two samples from patients with autoimmune diseases. The two AIDS positive samples were screened out from over 500 HTLV III positive AIDS serum specimens and had been showned to be negative in ELISA using only the 21mer peptide as the immunoadsorbent.

[3] = tested on: antibodies to HTLV-III
Text: A third problem which has plagued this area is the possibility of false negative results.
where A492 (RC) is the absorbance reading for the reactive control and A492 (NRC) is the absorbance reading for the non-reactive control.

[4] = tested on: antibodies to HTLV-III; settings: cited from earlier work

Substance | Reactivity % [1] | ELISA result of the two AIDS positive samples [2] | serum samples positive by Western Blot Analysis giving negative results ([3]; 12 out of 449) | accuracy of the results ([3]; cutoff point=0.1xA492 (RC)+1xA492 (NRC)) | serum samples positive by Western Blot Analysis giving negative results, out of 449 ([3]; mostly at the later stage of AIDS) | immunoreactivity (in words) [4] | immunoreactivity (in words) ([1]; observed from Table III)
Arg--Ile--Leu--Ala--Val--Glu--Arg--Tyr--Leu--Lys--Asp--Gln--Gln--Leu--Leu--Gly--Ile--Trp--Gly--Cys--Ser [Peptide 6] | 100% | negative | about 2.67% | about 98% | 12 |  | 
Arg-Ile-Leu-Ala-Val-Glu-Arg-Tyr-Leu-Lys-Asp-Gln-Gln-Leu--Leu-Gly-Ile-Trp-Gly-Cys-Ser-Gly-Lys-Leu-Ile-Cys-X |  |  |  |  |  | not as good as the deactivated virus | 
RILAVERYKLDQQLLGIWGCSGKLICTTAVPWNAS (cysteine pairing not given here) [Peptide 17] | 132.0% |  |  |  |  |  | highest immunoreactivity
